{"source": "patent US12564609B2", "about": "“Hematopoietic stem cell engraftment with a combination of agents” (The Board of Trustees of the Leland Stanford Junior …, priority 2020, dated 2026)", "key": {"[1]": {"system": "human Lin−CD34+CD38− cells", "assay": "In vitro HSC culture, cell counting and live/dead viability assay (human)", "format": "cell-based", "description": "A. Schematic of treatment protocol. C57BL/6 mice were injected with three different doses of AZA (1.25, 2.5 and 5 mg/kg/d) for 3 days. 24 h after last AZA injection BM was analyzed for HSC-depletion and Ki67 intracellular protein expression. B. Overlay histogram of Ki67 intracellular protein expression in LT-HSC (gated from live, Lin^−Sca1^+c-Kit^+CD150^+CD48^− cells) in mice treated with AZA 1.25 mg/kg, 2.5 mg/kg and 5 mg/kg/d for 3 consecutive days. C. Mean fluorescence intensity (MFI) of Ki67 intracellular protein expression in LT-HSC, ST-HSC, MPP2, MPP3/4 and myeloid progenitors (MP). Data were pooled from 2 independent experiments and represent mean±SD (n=7). Statistics were calculated Mann-Whitney test (*P<0.05; **P<0.01; ***P<0.001). […] After 48 h % live/dead cells was assessed by using EarlyTox Live/Dead Assay Kit. E. Proliferation curves of FACS-sorted mouse Lin^−Sca1^+c-Kit^+CD48^− in the presence of indicated concentrations of AZA (left) and cell viability as assessed by % of Calcein AM positive cells after 48 h of cell culture (right). […] Statistics were calculated with Mann-Whitney test (*P<0.05; **P<0.01; ***P<0.001). F. Proliferation curves of FACS-sorted human Lin^−CD34^+CD38^− cells in the presence of indicated concentrations of AZA (left) and cell viability as assessed by % of Calcein AM positive cells after 48 h of cell culture (right). […]"}, "donor HSC engraftment": {"system": "donor HSC engraftment", "assay": "Congenic hematopoietic cell transplantation, donor chimerism in peripheral blood", "format": "in vivo, B6 mice", "from_the_text": "Mice. C57BL/6 (B6) mice (H-2^b, Thy1.1, CD45.1/CD45.2) were recipients and B6 mice (H-2^b, Thy1.1, CD45.1) were donors for the congenic transplant experiments. BALB.B (H-2^b, Thy1.2, CD45.2) mice were used as recipients and B6 mice (H-2^b, Thy1.1, CD45.1) as donors for […] (allogeneic) transplant experiments. Recipients were >8 weeks old and donors were 8-12 weeks old at timepoint of transplantation. B6 (H-2^b, Thy1.1, CD45.2) mice were used for in vivo depletion studies. Mice were bred and maintained under pathogen free conditions at the Stanford University Research Animal Facility. All experiments were performed under a protocol approved by the Stanford Administrative Panel on Laboratory Animal Care.\nIn vivo administration of therapeutic agents and cytokines. Anti-mouse CD117 mAbs, clone ACK2 (BioXcell) and 2B8 (BioXcell), were injected retroorbital as a single dose of 500 μg following intraperitoneal administration of Diphenhydramine (Benadryl). Anti CD4 (clone GK1.5, BioXcell) and anti-CD8 (clone YTS169.4, BioXcell) were administered intraperitoneally at a dose of 100 μg in 100 μl phosphate-buffered saline (PBS). […] Before each injection, AZA was thawed for 10-15 min at room temperature (RT), resuspended in PBS and administered intraperitoneally in 100 μl. […]"}, "[2]": {"assay": "AZA in mouse model of HCL with transplantation of donor hematopoietic cells", "format": "in vivo, mice", "settings": "AZA 5 mg/kg for 5 days followed by transplantation", "description": "Wildtype and HCL mice were treated with AZA 5 mg/kg for 5 days following by transplantation of donor hematopoietic cells. % myeloid donor chimerism was assessed by flow cytometry at 4- and 16-weeks post transplantation."}, "[3]": {"settings": "patients, subcutaneous administration of 75 mg/m^2 AZA, plasma; cited from earlier work"}}}
{"smiles": "Nc1ncn([C@@H]2O[C@H](CO)[C@@H](O)[C@H]2O)c(=O)n1", "note": "[AZA, 5-Azacytidine]", "values": [{"measurement": "number of cells in culture", "setting": "[1]; AZA 0.1, 0.5 and 1 μg/ml at baseline and 24 h, 48 h culture with SCF and TPO", "value": "reduced the number of cells in a dose dependent manner"}, {"measurement": "cell viability by Calcein AM", "setting": "[1]; AZA concentrations 0.1 μg/ml, 48 h", "value": "significant decrease in cell viability"}, {"measurement": "stable engraftment of donor WBM", "setting": "donor HSC engraftment; AZA 2.5 mg/kg for 5 days, 20×10^6 congenic WBM cells", "value": "does not enable stable engraftment"}, {"measurement": "myeloid donor chimerism", "setting": "donor HSC engraftment; single agent AZA 5 mg/kg for 5 days, congenic WBM cells", "value": "10-15%"}, {"measurement": "therapeutic activity", "setting": "[2]", "value": "shows therapeutic activity"}, {"measurement": "Cmax", "setting": "[3]", "value": "750 ± 403.3", "unit": "ng/mL"}]}
